Source: patent US20180235914A1, “PR[…] PHA[…] OF […] A & B AGONISTS AGAINST NEURODEGENERATIVE AND NEURODEVELOPMENTAL DISEASES” (priority 2017, published 2018)

Key:
[1] = system: Rats; test: Animal models in Rats (haloperidol or reserpine catalepsy, reserpine palpebral ptosis, apomorphine and haloperidol stereotypies); format: in vivo; conditions: inferred from catalepsy, ptosis and stereotypy models
[2] = system: PTZ induced behavioral effects in mice; test: Antagonism of Pentylenetetrazole (PTZ) induced behavioral effects in mice; format: in vivo; conditions: compounds 50 to 200 mg/kg (ip), PTZ 10 to 70 mg/kg (ip)
Procedure: In good agreement with the above pharmacological properties, GS, GP, GL and PG, at doses of 50 to 200 mg/kg, intraperitoneal (ip), in mice antagonized all the behavioral effects (in mice) corresponding to the symptoms, in humans, announcing the development of the neurodegenerative and neurodevelopmental diseases, i.e., anxiety, fear, social disconnection, agressivity, compulsive reactions, hypermotility, stereotypic activity, pain, seizures and lethargy, appearing at various degrees according to the amplitude of the Glutamate/GABA imbalance and to the brain regions (Basal Ganglia, Hippocampus, Cortex) affected by the above imbalance. Indeed, all the above behavioral effects (obtained, in mice, by administration of the GABAergic antagonist Pentylenetetrazole (PTZ) at 10 to 70 mg/kg, (ip): with 10 to 40 mg/kg (ip) giving fear, anxiety, social disconnection, and agressivity, hypermotility and stereotypic activity—the latter being better expressed by previous (reserpine induced) hypersensibilisation of the brain DA receptors—and seizures (obtained at 50 to 70 mg/kg (ip) of PTZ), were antagonized by GS, GP, GL, and PG at 50 to 200 mg/kg (ip).

[3] = Lipophilicity; format: physicochemical; conditions: more specifically for GS, GP and GL
[4] = system: GABA receptors; test: Affinity for the GABA receptors; format: binding

| SMILES | preferential brain region of action [1] | behavioral effects obtained by PTZ (fear, anxiety, social disconnection, agressivity, hypermotility, stereotypic activity, seizures) [2] | lipophilicities [3] | affinities for the GABA receptors [4] |
| --- | --- | --- | --- | --- |
| NC(=O)CCC/N=C(\c1ccc(Cl)cc1)c1cc(F)ccc1O [PG, reference compound] | preferentially acting in substantia nigra | antagonized | high lipophilicities | low affinities |
| CCCCCCCCCCCCCCCC(=O)NCCCC(=O)O [GP, GABApalmitamide] | preferentially acting in the striatum | antagonized | high lipophilicities | low affinities |
| CCCCCCCCCCCCCCCCCC(=O)NCCCC(=O)O [GS, GABAstearamide] | preferentially acting in substantia nigra | antagonized | high lipophilicities | low affinities |
| CCCCC/C=C\C/C=C\CCCCCCCC(=O)NCCCC(=O)O [GL, GABAlinoleamide] | preferentially acting in the striatum | antagonized | high lipophilicities | low affinities |
